Common to all, as to assay: cell-based
Settings in all cases: HEK293; relative to aldosterone = 100%; read-out: % relative to Aldo

Experiment [1] deals with T1, full-length elephant shark MR (Callorhinchus milii, UniProt A0A4W3I5J5).
T1 construct: gene nr3c2; full coding region in pcDNA3.1, expressed in HEK293 cells
T1 sequence (A0A4W3I5J5 1-956): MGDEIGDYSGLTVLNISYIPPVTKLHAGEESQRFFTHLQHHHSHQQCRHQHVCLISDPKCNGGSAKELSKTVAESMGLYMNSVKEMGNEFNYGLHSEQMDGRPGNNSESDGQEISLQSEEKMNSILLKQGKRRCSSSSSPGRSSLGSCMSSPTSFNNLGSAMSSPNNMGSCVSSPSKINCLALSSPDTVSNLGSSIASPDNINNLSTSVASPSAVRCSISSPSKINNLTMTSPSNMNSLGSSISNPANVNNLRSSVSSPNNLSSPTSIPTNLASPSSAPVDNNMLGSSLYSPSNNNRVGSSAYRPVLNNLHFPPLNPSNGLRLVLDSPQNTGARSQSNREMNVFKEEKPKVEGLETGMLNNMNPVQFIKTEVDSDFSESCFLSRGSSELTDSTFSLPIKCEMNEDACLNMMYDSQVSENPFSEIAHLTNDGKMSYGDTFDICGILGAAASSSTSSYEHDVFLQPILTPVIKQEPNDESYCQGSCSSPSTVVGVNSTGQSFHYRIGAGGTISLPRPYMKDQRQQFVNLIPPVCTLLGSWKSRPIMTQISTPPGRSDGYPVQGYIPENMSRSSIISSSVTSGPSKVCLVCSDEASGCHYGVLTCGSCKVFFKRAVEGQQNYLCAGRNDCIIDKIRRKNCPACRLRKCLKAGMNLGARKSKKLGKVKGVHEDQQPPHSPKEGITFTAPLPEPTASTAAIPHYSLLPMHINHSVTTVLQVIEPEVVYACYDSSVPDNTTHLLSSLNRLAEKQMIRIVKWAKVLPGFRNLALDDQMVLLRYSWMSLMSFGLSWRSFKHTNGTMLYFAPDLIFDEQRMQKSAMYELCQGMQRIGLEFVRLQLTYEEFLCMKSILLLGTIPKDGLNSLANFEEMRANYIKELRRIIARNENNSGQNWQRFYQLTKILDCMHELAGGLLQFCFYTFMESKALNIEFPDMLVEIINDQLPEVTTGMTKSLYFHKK
On the set-up: transcriptional activation of full-length MR, MMTV-luciferase reporter, concentration-response. The text has this:
(§1) Figure 3. Transcriptional activation of elephant shark MR by 3-ketosteroids. Full length and truncated elephant shark MR were expressed in HEK293 cells with an MMTV-luciferase reporter. A. Full length elephant shark MR. […] (19NP), 17OH-Prog, Spiron or vehicle alone (DMSO). B. Truncated elephant shark MR. […] (19NP), 17OH-Prog or Spiron or vehicle alone (DMSO). Results are expressed as means ± SEM, n=3. Y-axis indicates fold-activation compared to the activity of control vector with vehicle (DMSO) alone as 1.  Figure 4. Concentration-dependent transcriptional activation of full-length and truncated elephant shark MR (shark MR) by 3-ketosteroids. Full length and truncated elephant shark MR (shark MR) were expressed in HEK293 cells with an MMTV-luciferase reporter. Full-length elephant shark MR (shark MR) (A) and (C) and truncated elephant shark MR (shark MR) (B) and (D). (A), (B) Aldo, cortisol, corticosterone, 11deoxycorticosterone or 11-deoxycortisol. (C), (D) Aldo, Prog, [compound left out] [compound left out], 17OH-Prog (17OH-P) or Spiron. […] Y-axis indicates fold-activation compared to the activity of control vector with vehicle (DMSO) alone as 1.  Figure 5. Concentration-dependent transcriptional activation of full-length and truncated chicken and zebrafish MR by progestins and Spironolactone. […] Full-length chicken MR (A) and zebrafish MR (B) and truncated chicken MR (C) and zebrafish MR (D). Y-axis indicates fold-activation compared to the activity of control vector with vehicle (DMSO) alone as 1.

In experiment [2] the target is T2, truncated elephant shark MR (GAL4-DBD-MR-LBD) (Callorhinchus milii, UniProt A0A4W3I5J5).
T2 construct: gene nr3c2
T2 sequence (A0A4W3I5J5 658-956 limits assumed): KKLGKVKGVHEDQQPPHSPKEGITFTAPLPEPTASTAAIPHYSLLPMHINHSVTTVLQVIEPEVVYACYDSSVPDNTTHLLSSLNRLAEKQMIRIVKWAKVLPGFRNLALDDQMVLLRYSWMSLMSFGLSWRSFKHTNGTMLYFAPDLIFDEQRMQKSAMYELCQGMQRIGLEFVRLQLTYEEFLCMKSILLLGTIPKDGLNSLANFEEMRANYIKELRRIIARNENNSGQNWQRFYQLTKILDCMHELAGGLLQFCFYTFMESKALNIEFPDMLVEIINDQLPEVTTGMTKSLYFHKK
On the set-up: transcriptional activation of truncated GAL4-DBD-MR-LBD, luciferase reporter, concentration-response. From the text:
(§2) In parallel experiments, truncated elephant shark MR, lacking the A/B domain and containing a GAL4-DBD instead of the MR DBD, retained a strong response to all corticosteroids and to [compound left out] (Figure 3B). […] Concentration-dependent transcriptional activation of full-length and truncated elephant shark MR (shark MR) by 3-ketosteroids. Full length and truncated elephant shark MR (shark MR) were expressed in HEK293 cells with an MMTV-luciferase reporter. Full-length elephant shark MR (shark MR) (A) and (C) and truncated elephant shark MR (shark MR) (B) and (D). (A), (B) Aldo, cortisol, corticosterone, 11deoxycorticosterone or 11-deoxycortisol. (C), (D) Aldo, Prog, [compound left out] [compound left out], 17OH-Prog (17OH-P) or Spiron. […] Y-axis indicates fold-activation compared to the activity of control vector with vehicle (DMSO) alone as 1.  Figure 5. Concentration-dependent transcriptional activation of full-length and truncated chicken and zebrafish MR by progestins and Spironolactone. […] Full-length chicken MR (A) and zebrafish MR (B) and truncated chicken MR (C) and zebrafish MR (D). Y-axis indicates fold-activation compared to the activity of control vector with vehicle (DMSO) alone as 1.

The next experiment concerns the target T3, full-length zebrafish MR (Danio rerio, UniProt A6YIH7).
T3 construct: gene nr3c2; full-length, expressed in HEK293 cells
T3 sequence (A6YIH7 1-970): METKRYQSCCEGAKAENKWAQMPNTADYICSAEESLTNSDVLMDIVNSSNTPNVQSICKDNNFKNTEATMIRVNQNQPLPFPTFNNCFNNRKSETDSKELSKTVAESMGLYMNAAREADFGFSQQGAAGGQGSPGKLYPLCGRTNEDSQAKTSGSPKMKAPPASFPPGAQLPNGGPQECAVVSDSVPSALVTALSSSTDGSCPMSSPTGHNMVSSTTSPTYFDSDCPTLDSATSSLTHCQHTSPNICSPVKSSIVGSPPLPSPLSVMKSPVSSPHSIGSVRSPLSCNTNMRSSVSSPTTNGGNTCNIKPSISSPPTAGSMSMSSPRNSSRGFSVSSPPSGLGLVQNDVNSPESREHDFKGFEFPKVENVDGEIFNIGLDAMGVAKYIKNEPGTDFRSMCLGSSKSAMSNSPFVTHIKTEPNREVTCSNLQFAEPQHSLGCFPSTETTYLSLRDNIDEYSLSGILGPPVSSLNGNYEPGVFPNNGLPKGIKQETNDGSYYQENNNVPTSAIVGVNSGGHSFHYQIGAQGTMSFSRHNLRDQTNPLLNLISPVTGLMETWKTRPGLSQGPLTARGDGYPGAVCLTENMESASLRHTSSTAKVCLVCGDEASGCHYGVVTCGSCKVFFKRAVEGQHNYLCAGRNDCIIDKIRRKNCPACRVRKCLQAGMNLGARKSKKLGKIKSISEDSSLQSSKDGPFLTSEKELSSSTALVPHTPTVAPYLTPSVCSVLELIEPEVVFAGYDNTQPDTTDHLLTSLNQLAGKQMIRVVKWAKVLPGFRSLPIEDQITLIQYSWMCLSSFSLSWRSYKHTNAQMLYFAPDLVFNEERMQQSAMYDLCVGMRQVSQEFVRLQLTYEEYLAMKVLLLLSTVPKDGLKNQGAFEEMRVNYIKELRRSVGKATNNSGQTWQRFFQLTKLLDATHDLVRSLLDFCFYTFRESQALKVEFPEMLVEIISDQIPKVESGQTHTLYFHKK
On the set-up: transcriptional activation of full-length MR, MMTV-luciferase reporter, concentration-response.
From the text: as §1

The target of a further experiment is T4, full-length chicken MR (Gallus gallus, UniProt C1KB84).
T4 construct: gene NR3C2; full-length, expressed in HEK293 cells
T4 sequence (C1KB84 1-986): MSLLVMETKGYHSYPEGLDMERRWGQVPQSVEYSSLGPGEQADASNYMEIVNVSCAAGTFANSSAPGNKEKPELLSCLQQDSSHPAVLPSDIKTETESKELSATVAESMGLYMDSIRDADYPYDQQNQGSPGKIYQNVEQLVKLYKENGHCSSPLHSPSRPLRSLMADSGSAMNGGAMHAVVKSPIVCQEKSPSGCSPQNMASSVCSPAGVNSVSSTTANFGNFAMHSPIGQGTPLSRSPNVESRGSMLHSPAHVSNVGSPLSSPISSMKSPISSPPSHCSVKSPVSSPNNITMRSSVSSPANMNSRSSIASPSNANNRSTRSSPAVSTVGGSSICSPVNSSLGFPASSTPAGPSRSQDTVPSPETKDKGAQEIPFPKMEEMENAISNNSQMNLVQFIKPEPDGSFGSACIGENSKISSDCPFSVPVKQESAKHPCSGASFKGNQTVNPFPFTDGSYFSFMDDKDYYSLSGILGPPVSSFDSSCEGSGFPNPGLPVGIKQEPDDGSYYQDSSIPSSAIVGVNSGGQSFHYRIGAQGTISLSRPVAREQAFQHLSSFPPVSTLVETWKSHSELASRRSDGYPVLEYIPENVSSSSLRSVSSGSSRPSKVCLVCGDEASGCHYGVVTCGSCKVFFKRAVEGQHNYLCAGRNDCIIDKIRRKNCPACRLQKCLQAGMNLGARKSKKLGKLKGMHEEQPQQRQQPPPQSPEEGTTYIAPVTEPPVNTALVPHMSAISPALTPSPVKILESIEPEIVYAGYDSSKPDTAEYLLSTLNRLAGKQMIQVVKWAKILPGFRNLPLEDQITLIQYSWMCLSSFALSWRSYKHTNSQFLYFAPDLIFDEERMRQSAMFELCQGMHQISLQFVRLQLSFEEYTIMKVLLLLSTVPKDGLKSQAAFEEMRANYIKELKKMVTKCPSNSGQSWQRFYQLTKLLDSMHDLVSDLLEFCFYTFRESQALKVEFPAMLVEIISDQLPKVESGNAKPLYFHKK
More on the design: transcriptional activation of full-length MR, MMTV-luciferase reporter, concentration-response.
From the text: as §1

For experiment [3], the target named is T5, truncated zebrafish MR (GAL4-DBD-MR-LBD) (Danio rerio, UniProt A6YIH7).
T5 construct: gene nr3c2
T5 sequence (A6YIH7 669-970 limits assumed): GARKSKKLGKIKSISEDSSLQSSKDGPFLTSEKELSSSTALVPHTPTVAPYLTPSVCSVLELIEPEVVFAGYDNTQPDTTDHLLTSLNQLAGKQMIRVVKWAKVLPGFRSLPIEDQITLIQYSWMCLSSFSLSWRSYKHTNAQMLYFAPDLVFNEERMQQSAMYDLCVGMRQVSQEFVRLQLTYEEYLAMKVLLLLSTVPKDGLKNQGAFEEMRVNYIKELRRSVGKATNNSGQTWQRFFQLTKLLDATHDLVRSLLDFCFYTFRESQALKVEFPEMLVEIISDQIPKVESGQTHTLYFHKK
On the set-up: transcriptional activation of truncated GAL4-DBD-MR-LBD, luciferase reporter, concentration-response.
From the text: as §2

Take `C[C@]12C[C@H](O)[C@H]3[C@@H](CCC4=CC(=O)CC[C@@]43C)[C@@H]1CC[C@@H]2C(=O)CO` [B, corticosterone]: the values for the Emax in experiment [1] and in experiment [2] were 101% and 90%, respectively.
On to `CC(=O)[C@H]1CC[C@H]2[C@@H]3CCC4=CC(=O)CC[C@]4(C)[C@H]3CC[C@]12C` [Prog], for which the Emax in experiment [1] worked out at 43%; on full-length zebrafish MR, 77%; on full-length chicken MR, 62%; in experiment [2], 40%; in experiment [3], 122%.
As to `C[C@]12CC[C@H]3[C@@H](CCC4=CC(=O)CC[C@@]43C)[C@@H]1CC[C@@H]2C(=O)CO` [11-deoxycorticosterone], the Emax was found to be 83% in experiment [1] and 81% in experiment [2].
As for `C[C@]12CCC(=O)C=C1CC[C@@H]1[C@@H]2[C@@H](O)C[C@@]2(C)[C@H]1CC[C@]2(O)C(=O)CO` [cortisol], the Emax was 114% in experiment [1] and 79% in experiment [2].
Taken in the same sequence, the figures for `C[C@]12CCC(=O)C=C1CC[C@@H]1[C@@H]2CC[C@@]2(C)[C@H]1CC[C@]2(O)C(=O)CO` [S, 11-deoxycortisol] were 83% and 77%.
Turning to `CC(=O)S[C@@H]1CC2=CC(=O)CC[C@]2(C)[C@H]2CC[C@@]3(C)[C@@H](CC[C@@]34CCC(=O)O4)[C@H]12` [Spiron], the Emax was found to be 45% in experiment [1], 54% at full-length zebrafish MR, 30% on full-length chicken MR and 53% in experiment [2].
As for `CC(=O)[C@@]1(O)CC[C@H]2[C@@H]3CCC4=CC(=O)CC[C@]4(C)[C@H]3CC[C@@]21C` [17OH-Prog], the Emax in experiment [1] came to 25%; at full-length zebrafish MR, 44%; on full-length chicken MR it was 15%; in experiment [2], 26%.
Turning to `CC(=O)[C@H]1CC[C@H]2[C@@H]3CCC4=CC(=O)CC[C@@H]4[C@H]3CC[C@]12C` [19norProg], the Emax is 84% in experiment [1]; 83% at full-length zebrafish MR; 68% on full-length chicken MR; 98% in experiment [2]; 122% in experiment [3].

(Values after publication doi:10.1101/265348v4, “Transcriptional Activation of Elephant Shark Mineralocorticoid Receptor by Corticosteroids, Progesterone and Spironolactone” (biorxiv, 2018).)
